The text below walks through data of the supplement of paper PMC10307832.

Common to all, as to assay: relative viability (nuclei count vs DMSO), 5 days (fraction); higher = more cells survive
Compound in the assay “AT9283 + Tozasertib”: O=C(Nc1c[nH]nc1-c1nc2ccc(CN3CCOCC3)cc2[nH]1)NC1CC1 [AT9283] + Cc1cc(Nc2cc(N3CCN(C)CC3)nc(Sc3ccc(NC(=O)C4CC4)cc3)n2)n[nH]1 [Tozasertib] (partner 0.1 µM)
In outline: (§1)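 Lung cancer cell lines, seeded in 1536-well plates, were treated the following day by pin tool with a single drug or with five library-drug doses (not always all listed) in √10 steps on top of a fixed anchor-drug dose. Cells were fixed and nuclei stained in one step after 5 days, and nuclei were counted. Relative viability is the nuclei count for treated wells divided by that for vehicle wells, reported as medians of duplicate plates.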

Compound in the assay “AT9283 + Vorinostat”: O=C(Nc1c[nH]nc1-c1nc2ccc(CN3CCOCC3)cc2[nH]1)NC1CC1 [AT9283] + O=C(CCCCCCC(=O)Nc1ccccc1)NO [Vorinostat] (partner 1 µM)
In outline: as §1

Compound in the assay “AT9283 + Pemetrexed”: O=C(Nc1c[nH]nc1-c1nc2ccc(CN3CCOCC3)cc2[nH]1)NC1CC1 [AT9283] + Nc1nc2[nH]cc(CCc3ccc(C(=O)N[C@@H](CCC(=O)O)C(=O)O)cc3)c2c(=O)[nH]1 [Pemetrexed] (partner 0.2 µM)
In short, it runs like this: as §1

Compound in the assay “Erlotinib + Foretinib”: C#Cc1cccc(Nc2ncnc3cc(OCCOC)c(OCCOC)cc23)c1 [Erlotinib] + COc1cc2c(Oc3ccc(NC(=O)C4(C(=O)Nc5ccc(F)cc5)CC4)cc3F)ccnc2cc1OCCCN1CCOCC1 [Foretinib] (partner 0.25 µM)
In short, it runs like this:
as §1

Compound in the assay “Erlotinib + Pemetrexed”: C#Cc1cccc(Nc2ncnc3cc(OCCOC)c(OCCOC)cc23)c1 [Erlotinib] + Nc1nc2[nH]cc(CCc3ccc(C(=O)N[C@@H](CCC(=O)O)C(=O)O)cc3)c2c(=O)[nH]1 [Pemetrexed] (partner 0.2 µM)
In outline:
as §1

As to NCI-H23, the relative viability is 0.413 with AT9283 + Tozasertib (first compound 0.003 µM); 0.603 with AT9283 + Tozasertib (first compound 0.03 µM); 0.276 with AT9283 + Tozasertib (first compound 0.09487 µM); 0.285 in the assay with AT9283 + Tozasertib (first compound 0.3 µM); 0.523 with AT9283 + Vorinostat (first compound 0.003 µM); 0.363 with AT9283 + Vorinostat (first compound 0.03 µM). Further, the relative viability with AT9283 + Vorinostat (first compound 0.09487 µM) was found to be 0.183; in the assay with AT9283 + Vorinostat (first compound 0.3 µM), 0.177; with AT9283 + Pemetrexed (first compound 0.003 µM), 0.675; with AT9283 + Pemetrexed (first compound 0.03 µM), 0.749; with AT9283 + Pemetrexed (first compound 0.09487 µM), 0.296; with AT9283 + Pemetrexed (first compound 0.3 µM), 0.238. In addition, the relative viability with Erlotinib + Foretinib (first compound 0.02 µM) came out at 0.909; in the assay with Erlotinib + Foretinib (first compound 0.6325 µM) it was 1.24; in the assay with Erlotinib + Foretinib (first compound 2 µM), 0.631; in the assay with Erlotinib + Pemetrexed (first compound 0.02 µM), 0.774; in the assay with Erlotinib + Pemetrexed (first compound 0.2 µM), 0.575; with Erlotinib + Pemetrexed (first compound 0.6325 µM), 0.747. Also, in the assay with Erlotinib + Pemetrexed (first compound 2 µM), the relative viability was 0.523.
Regarding EKVX, the relative viability with AT9283 + Tozasertib (first compound 0.003 µM) is 0.377; in the assay with AT9283 + Tozasertib (first compound 0.03 µM) it was 0.312; with AT9283 + Tozasertib (first compound 0.09487 µM), 0.317; in the assay with AT9283 + Tozasertib (first compound 0.3 µM), 0.183; in the assay with AT9283 + Vorinostat (first compound 0.003 µM) it was 0.673; in the assay with AT9283 + Vorinostat (first compound 0.03 µM), 0.545. In addition, the relative viability in the assay with AT9283 + Vorinostat (first compound 0.09487 µM) came out at 0.302; with AT9283 + Vorinostat (first compound 0.3 µM), 0.287; in the assay with AT9283 + Pemetrexed (first compound 0.003 µM) it was 0.436; with AT9283 + Pemetrexed (first compound 0.03 µM) it was 0.352; with AT9283 + Pemetrexed (first compound 0.09487 µM), 0.211; with AT9283 + Pemetrexed (first compound 0.3 µM) it was 0.204. For the same cell line, the relative viability came to 0.519 with Erlotinib + Foretinib (first compound 0.02 µM); 0.267 in the assay with Erlotinib + Foretinib (first compound 0.6325 µM); 0.267 with Erlotinib + Foretinib (first compound 2 µM); 0.411 with Erlotinib + Pemetrexed (first compound 0.02 µM); 0.283 with Erlotinib + Pemetrexed (first compound 0.2 µM); 0.286 in the assay with Erlotinib + Pemetrexed (first compound 0.6325 µM). In addition, the relative viability with Erlotinib + Pemetrexed (first compound 2 µM) came to 0.19.
Consider NCI-H2087, for which the relative viability in the assay with AT9283 + Tozasertib (first compound 0.003 µM) worked out at 0.24; with AT9283 + Tozasertib (first compound 0.03 µM), 0.192; with AT9283 + Tozasertib (first compound 0.09487 µM), 0.189; with AT9283 + Tozasertib (first compound 0.3 µM), 0.148; in the assay with AT9283 + Vorinostat (first compound 0.003 µM), 1.01; in the assay with AT9283 + Vorinostat (first compound 0.03 µM), 0.158. The relative viability is 0.179 with AT9283 + Vorinostat (first compound 0.09487 µM); 0.126 with AT9283 + Vorinostat (first compound 0.3 µM); 0.664 with AT9283 + Pemetrexed (first compound 0.003 µM); 0.586 in the assay with AT9283 + Pemetrexed (first compound 0.03 µM); 0.261 in the assay with AT9283 + Pemetrexed (first compound 0.09487 µM); 0.183 with AT9283 + Pemetrexed (first compound 0.3 µM). Also, the relative viability with Erlotinib + Foretinib (first compound 0.02 µM) is 1.12; with Erlotinib + Foretinib (first compound 0.2 µM), 1.18; with Erlotinib + Foretinib (first compound 0.6325 µM), 1.12; in the assay with Erlotinib + Foretinib (first compound 2 µM), 0.964; with Erlotinib + Pemetrexed (first compound 0.02 µM), 0.753; in the assay with Erlotinib + Pemetrexed (first compound 0.2 µM), 0.704. The relative viability with Erlotinib + Pemetrexed (first compound 0.6325 µM) was found to be 0.728; with Erlotinib + Pemetrexed (first compound 2 µM), 0.701.
With SK-LU-1, the relative viability was 0.359 with AT9283 + Tozasertib (first compound 0.003 µM); 0.301 with AT9283 + Tozasertib (first compound 0.03 µM); 0.253 with AT9283 + Tozasertib (first compound 0.09487 µM); 0.267 in the assay with AT9283 + Tozasertib (first compound 0.3 µM); 0.904 in the assay with AT9283 + Vorinostat (first compound 0.003 µM); 0.418 in the assay with AT9283 + Vorinostat (first compound 0.03 µM). Moreover, the relative viability in the assay with AT9283 + Vorinostat (first compound 0.09487 µM) was found to be 0.329; with AT9283 + Vorinostat (first compound 0.3 µM) it was 0.314; with AT9283 + Pemetrexed (first compound 0.003 µM), 1.16; with AT9283 + Pemetrexed (first compound 0.03 µM), 0.663; in the assay with AT9283 + Pemetrexed (first compound 0.09487 µM), 0.396; in the assay with AT9283 + Pemetrexed (first compound 0.3 µM) it was 0.391. For the same cell line, the relative viability with Erlotinib + Foretinib (first compound 0.02 µM) was 0.961; with Erlotinib + Foretinib (first compound 0.2 µM) it was 0.975; with Erlotinib + Foretinib (first compound 0.6325 µM), 0.997; with Erlotinib + Foretinib (first compound 2 µM), 0.699; with Erlotinib + Pemetrexed (first compound 0.02 µM) it was 1.07; with Erlotinib + Pemetrexed (first compound 0.2 µM), 1.01. Also, in the assay with Erlotinib + Pemetrexed (first compound 0.6325 µM), the relative viability stood at 1.05.
